Measured values reported in patent US11395833B2, “Process for the preparation and purification of the sodium salt of hyaluronic acid” (priority 2016, dated 2022).

experiment: LAL test for bacterial endotoxins (Ph. Eur. 5.0, 2.6.14); conditions: analysis of the product according to Ph. Eur. 5.0
Description: LAL Test: the basis of the LAL test is the capacity of the amebocytes extracted from blood of Limulus polyphemus to gel in the presence of bacterial endotoxins from Gram-negatives, primarily responsible for the pyrogen effect. This test is carried out according to Ph. Eur. 5.0, 2.6.14.

Point of comparison: sodium salt of HA [Example 1], “Bacterial endotoxins (LAL test)” value 0.012 EU/mg. Against it:
- sodium salt of HA [Example 2] — the same, 0.012 EU/mg
- sodium salt of HA [Example 3] — lower, 0.0075 EU/mg
